Measurements from US20240158446A1, “CYCLIC COMPOUND HAVING SELECTIVE INHIBITORY ACTION ON KRAS OVER HRAS AND NRAS” (CHUGAI SEIYAKU KABUSHIKI KAISHA, priority 2021, published 2024).
*1 amine or outer side, *2 acyl side, *3 side chain or, on linkers, in order; H or OH if unused. Where a SMILES comes first, the peptide text is derived from it. Bridges are numbered along the chain shown (N, C = ends). [ ]: non-standard residue; d: D form. The star is where a group is joined. hPhe(3,5-F2-4-CF3) = N[C@@H](CCc1cc(F)c(C(F)(F)F)c(F)c1)C(=O)O; NPrPhe(4-CF3) = CCCN[C@@H](Cc1ccc(C(F)(F)F)cc1)C(=O)O; NMeGly(cPent) = CN[C@H](C(=O)O)C1CCCC1; Ac4c(3,3-F2) = NC1(C(=O)O)CC(F)(F)C1; X8 = C[C@@](N[*:1])(C(=O)[*:2])C1CC1; X11 = CCC[C@](C)(N[*:1])C(=O)[*:2]; αMeCha = C[C@](N)(CC1CCCCC1)C(=O)O; NMeD = CN[C@@H](CC(=O)O)C(=O)O; Ac4c(3-oxa) = NC1(C(=O)O)COC1; NMeL = CN[C@@H](CC(C)C)C(=O)O; αMeL = CC(C)C[C@](C)(N)C(=O)O; αMeV = CC(C)[C@](C)(N)C(=O)O; αMeS = C[C@](N)(CO)C(=O)O; Iva = CC[C@](C)(N)C(=O)O; Morpholide = C1CN(*)CCO1; Aze = O=C(O)[C@@H]1CCN1; Sar = CNCC(=O)O; tBu = CC(C)(C)*; Allyl = C=CC*

Key:
[1] = target: GDP-bound KRAS wild-type protein (Homo sapiens, UniProt P01116); assay: Binding to KRAS by surface plasmon resonance (SPR), Single Cycle Kinetics; settings: SPR Single Cycle Kinetics, GDP-bound KRAS wild-type protein, 1:1 binding model; read-out: KRAS KD
[2] = target: GDP-bound NRAS wild-type protein (Homo sapiens, UniProt P01111); assay: Binding to NRAS by surface plasmon resonance (SPR), Single Cycle Kinetics; settings: SPR, GDP-bound NRAS wild-type protein vs GDP-bound KRAS wild-type protein
[3] = target: GDP-bound HRAS wild-type protein (Homo sapiens, UniProt P01112); assay: Binding to HRAS by surface plasmon resonance (SPR), Single Cycle Kinetics; settings: SPR, GDP-bound HRAS wild-type protein vs GDP-bound KRAS wild-type protein
GDP-bound HRAS wild-type protein, sequence (P01112 whole entry): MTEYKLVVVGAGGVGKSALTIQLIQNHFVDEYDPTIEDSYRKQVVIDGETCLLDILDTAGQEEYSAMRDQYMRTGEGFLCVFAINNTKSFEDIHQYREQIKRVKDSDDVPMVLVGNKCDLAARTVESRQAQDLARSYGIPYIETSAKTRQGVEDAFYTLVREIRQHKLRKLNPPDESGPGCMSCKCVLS

GDP-bound NRAS wild-type protein, sequence (P01111 whole entry): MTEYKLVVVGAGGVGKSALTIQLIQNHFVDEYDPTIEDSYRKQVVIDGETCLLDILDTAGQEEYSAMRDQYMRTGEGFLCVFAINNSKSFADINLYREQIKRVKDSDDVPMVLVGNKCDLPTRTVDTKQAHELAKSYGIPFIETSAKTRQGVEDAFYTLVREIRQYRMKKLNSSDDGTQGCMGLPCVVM
GDP-bound KRAS wild-type protein, sequence (P01116 whole entry): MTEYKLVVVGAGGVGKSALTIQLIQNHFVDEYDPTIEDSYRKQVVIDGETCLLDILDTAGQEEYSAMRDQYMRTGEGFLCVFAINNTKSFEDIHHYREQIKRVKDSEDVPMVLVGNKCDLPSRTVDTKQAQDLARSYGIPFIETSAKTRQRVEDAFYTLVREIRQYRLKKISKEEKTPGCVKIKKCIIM

Row | Structure (SMILES) | Kd [1] [nM] | NRAS/KRAS (ratio of KD value with respect to NRAS to KD value with respect to KRAS) [2] | HRAS/KRAS (ratio of KD value with respect to HRAS to KD value with respect to KRAS) [3]
1 | CCCN1C(=O)[C@@H]2CCN2C(=O)CN(C)C(=O)[C@H]([C@@H](C)CC)NC(=O)[C@H](CC(C)C)N(C)C(=O)C[C@@H](C(=O)N2CCOCC2)N(C)C(=O)[C@H](C2CCCC2)N(C)C(=O)[C@](C)(CC)NC(=O)[C@@H]2CCCN2C(=O)[C@H](CCc2cc(F)c(C(F)(F)F)c(F)c2)NC(=O)CN(C)C(=O)[C@@H]1Cc1ccc(C(F)(F)F)cc1 [PP0790] ([NMeL]I[Sar][Aze][NPrPhe(4-CF3)][Sar][hPhe(3,5-F2-4-CF3)]P[Iva][NMeGly(cPent)][NMeD]-Morpholide; lactam N-11) | 0.56 | C (A compound having a KD ratio of 0.1 or more and less than 3 is denoted as C) | B (a compound having 3 or more and less than 10 is denoted as B)
2 | CCCN1C(=O)[C@@H]2CCN2C(=O)CN(C)C(=O)[C@H]([C@@H](C)CC)NC(=O)[C@H](CC(C)C)N(C)C(=O)C[C@@H](C(=O)N2CCOCC2)N(C)C(=O)[C@H](C2CCCC2)N(C)C(=O)[C@](C)(C2CC2)NC(=O)[C@@H]2CCCN2C(=O)[C@H](CCc2cc(F)c(C(F)(F)F)c(F)c2)NC(=O)CN(C)C(=O)[C@@H]1Cc1ccc(C(F)(F)F)cc1 [PP0791] ([NMeL]I[Sar][Aze][NPrPhe(4-CF3)][Sar][hPhe(3,5-F2-4-CF3)]P[X8][NMeGly(cPent)][NMeD]-Morpholide; lactam N-11) | 0.98 | C (A compound having a KD ratio of 0.1 or more and less than 3 is denoted as C) | B (a compound having 3 or more and less than 10 is denoted as B)
3 | CCCN1C(=O)[C@@H]2CCN2C(=O)CN(C)C(=O)[C@H]([C@@H](C)CC)NC(=O)[C@H](CC(C)C)N(C)C(=O)C[C@@H](C(=O)N2CCOCC2)N(C)C(=O)[C@H](C2CCCC2)N(C)C(=O)[C@](C)(C(C)C)NC(=O)[C@@H]2CCCN2C(=O)[C@H](CCc2cc(F)c(C(F)(F)F)c(F)c2)NC(=O)CN(C)C(=O)[C@@H]1Cc1ccc(C(F)(F)F)cc1 [PP0792] ([NMeL]I[Sar][Aze][NPrPhe(4-CF3)][Sar][hPhe(3,5-F2-4-CF3)]P[αMeV][NMeGly(cPent)][NMeD]-Morpholide; lactam N-11) | 0.9 | C (A compound having a KD ratio of 0.1 or more and less than 3 is denoted as C) | B (a compound having 3 or more and less than 10 is denoted as B)
4 | CCCN1C(=O)[C@@H]2CCN2C(=O)CN(C)C(=O)[C@H]([C@@H](C)CC)NC(=O)[C@H](CC(C)C)N(C)C(=O)C[C@@H](C(=O)N2CCOCC2)N(C)C(=O)[C@H](C2CCCC2)N(C)C(=O)[C@](C)(CCC)NC(=O)[C@@H]2CCCN2C(=O)[C@H](CCc2cc(F)c(C(F)(F)F)c(F)c2)NC(=O)CN(C)C(=O)[C@@H]1Cc1ccc(C(F)(F)F)cc1 [PP0794] ([NMeL]I[Sar][Aze][NPrPhe(4-CF3)][Sar][hPhe(3,5-F2-4-CF3)]P[X11][NMeGly(cPent)][NMeD]-Morpholide; lactam N-11) | 1.5 | C (A compound having a KD ratio of 0.1 or more and less than 3 is denoted as C) | B (a compound having 3 or more and less than 10 is denoted as B)
5 | CCCN1C(=O)[C@@H]2CCN2C(=O)CN(C)C(=O)[C@H]([C@@H](C)CC)NC(=O)[C@H](CC(C)C)N(C)C(=O)C[C@@H](C(=O)N2CCOCC2)N(C)C(=O)[C@H](C2CCCC2)N(C)C(=O)[C@](C)(CC(C)C)NC(=O)[C@@H]2CCCN2C(=O)[C@H](CCc2cc(F)c(C(F)(F)F)c(F)c2)NC(=O)CN(C)C(=O)[C@@H]1Cc1ccc(C(F)(F)F)cc1 [PP0795] ([NMeL]I[Sar][Aze][NPrPhe(4-CF3)][Sar][hPhe(3,5-F2-4-CF3)]P[αMeL][NMeGly(cPent)][NMeD]-Morpholide; lactam N-11) | 2.5 | C (A compound having a KD ratio of 0.1 or more and less than 3 is denoted as C) | B (a compound having 3 or more and less than 10 is denoted as B)
6 | CCCN1C(=O)[C@@H]2CCN2C(=O)CN(C)C(=O)[C@H]([C@@H](C)CC)NC(=O)[C@H](CC(C)C)N(C)C(=O)C[C@@H](C(=O)N2CCOCC2)N(C)C(=O)[C@H](C2CCCC2)N(C)C(=O)[C@](C)(CC2CCCCC2)NC(=O)[C@@H]2CCCN2C(=O)[C@H](CCc2cc(F)c(C(F)(F)F)c(F)c2)NC(=O)CN(C)C(=O)[C@@H]1Cc1ccc(C(F)(F)F)cc1 [PP0796] ([NMeL]I[Sar][Aze][NPrPhe(4-CF3)][Sar][hPhe(3,5-F2-4-CF3)]P[αMeCha][NMeGly(cPent)][NMeD]-Morpholide; lactam N-11) | 7.5 | C (A compound having a KD ratio of 0.1 or more and less than 3 is denoted as C) | B (a compound having 3 or more and less than 10 is denoted as B)
7 | CCCN1C(=O)[C@@H]2CCN2C(=O)CN(C)C(=O)[C@H]([C@@H](C)CC)NC(=O)[C@H](CC(C)C)N(C)C(=O)C[C@@H](C(=O)N2CCOCC2)N(C)C(=O)[C@H](C2CCCC2)N(C)C(=O)[C@](C)(COC)NC(=O)[C@@H]2CCCN2C(=O)[C@H](CCc2cc(F)c(C(F)(F)F)c(F)c2)NC(=O)CN(C)C(=O)[C@@H]1Cc1ccc(C(F)(F)F)cc1 [PP0798] ([NMeL]I[Sar][Aze][NPrPhe(4-CF3)][Sar][hPhe(3,5-F2-4-CF3)]P[αMeS](Me)[NMeGly(cPent)][NMeD]-Morpholide; lactam N-11) | 1.9 | C (A compound having a KD ratio of 0.1 or more and less than 3 is denoted as C) | B (a compound having 3 or more and less than 10 is denoted as B)
8 | C=CCOC[C@]1(C)NC(=O)[C@@H]2CCCN2C(=O)[C@H](CCc2cc(F)c(C(F)(F)F)c(F)c2)NC(=O)CN(C)C(=O)[C@H](Cc2ccc(C(F)(F)F)cc2)N(CCC)C(=O)[C@@H]2CCN2C(=O)CN(C)C(=O)[C@H]([C@@H](C)CC)NC(=O)[C@H](CC(C)C)N(C)C(=O)C[C@@H](C(=O)N2CCOCC2)N(C)C(=O)[C@H](C2CCCC2)N(C)C1=O [PP0799] ([NMeL]I[Sar][Aze][NPrPhe(4-CF3)][Sar][hPhe(3,5-F2-4-CF3)]P[αMeS](Allyl)[NMeGly(cPent)][NMeD]-Morpholide; lactam N-11) | 1.5 | C (A compound having a KD ratio of 0.1 or more and less than 3 is denoted as C) | B (a compound having 3 or more and less than 10 is denoted as B)
9 | CCCN1C(=O)[C@@H]2CCN2C(=O)CN(C)C(=O)[C@H]([C@@H](C)CC)NC(=O)[C@H](CC(C)C)N(C)C(=O)C[C@@H](C(=O)N2CCOCC2)N(C)C(=O)[C@H](C2CCCC2)N(C)C(=O)[C@](C)(COC(C)(C)C)NC(=O)[C@@H]2CCCN2C(=O)[C@H](CCc2cc(F)c(C(F)(F)F)c(F)c2)NC(=O)CN(C)C(=O)[C@@H]1Cc1ccc(C(F)(F)F)cc1 [PP0800] ([NMeL]I[Sar][Aze][NPrPhe(4-CF3)][Sar][hPhe(3,5-F2-4-CF3)]P[αMeS](tBu)[NMeGly(cPent)][NMeD]-Morpholide; lactam N-11) | 2.7 | C (A compound having a KD ratio of 0.1 or more and less than 3 is denoted as C) | B (a compound having 3 or more and less than 10 is denoted as B)
10 | CCCN1C(=O)[C@@H]2CCN2C(=O)CN(C)C(=O)[C@H]([C@@H](C)CC)NC(=O)[C@H](CC(C)C)N(C)C(=O)C[C@@H](C(=O)N2CCOCC2)N(C)C(=O)[C@H](C2CCCC2)N(C)C(=O)C2(COC2)NC(=O)[C@@H]2CCCN2C(=O)[C@H](CCc2cc(F)c(C(F)(F)F)c(F)c2)NC(=O)CN(C)C(=O)[C@@H]1Cc1ccc(C(F)(F)F)cc1 [PP0801] ([NMeL]I[Sar][Aze][NPrPhe(4-CF3)][Sar][hPhe(3,5-F2-4-CF3)]P[Ac4c(3-oxa)][NMeGly(cPent)][NMeD]-Morpholide; lactam N-11) | 0.45 | C (A compound having a KD ratio of 0.1 or more and less than 3 is denoted as C) | B (a compound having 3 or more and less than 10 is denoted as B)
11 | CCCN1C(=O)[C@@H]2CCN2C(=O)CN(C)C(=O)[C@H]([C@@H](C)CC)NC(=O)[C@H](CC(C)C)N(C)C(=O)C[C@@H](C(=O)N2CCOCC2)N(C)C(=O)[C@H](C2CCCC2)N(C)C(=O)C2(CC(F)(F)C2)NC(=O)[C@@H]2CCCN2C(=O)[C@H](CCc2cc(F)c(C(F)(F)F)c(F)c2)NC(=O)CN(C)C(=O)[C@@H]1Cc1ccc(C(F)(F)F)cc1 [PP0802] ([NMeL]I[Sar][Aze][NPrPhe(4-CF3)][Sar][hPhe(3,5-F2-4-CF3)]P[Ac4c(3,3-F2)][NMeGly(cPent)][NMeD]-Morpholide; lactam N-11) | 0.082 | C (A compound having a KD ratio of 0.1 or more and less than 3 is denoted as C) | B (a compound having 3 or more and less than 10 is denoted as B)
